We go through 40 molecules from patent US8088806B2 (Achillion Pharmaceuticals, Inc., priority 2005, dated 2012).

One experiment deals with HCV replicon. Put plainly: Replicon based assay of HCV replication inhibition (NPT ELISA). The class given is cell-based, Hepatitis C virus. The conditions noted are these: Hepatitis C virus, Huh-7, 72 h, Table I; Huh-7 HCV replicon-containing cells, three days; read-out: Activity. A digest of the protocol:
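Huh-7 cells carrying a bicistronic HCV replicon (neo, EMCV-IRES-driven NS3–NS5B) treated overnight after seeding with usually 6 concentrations, 10 to 0.03 micromolar, for three days at 37° C without G418. Replication read as NPT level by captured ELISA; matched-DMSO wells and interferon alpha as controls.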
Turning to `Fc1cc(Nc2nc(-c3cccnc3)cs2)ccc1OCC1CCCCC1` [compound 71, N-(4-(cyclohexylmethoxy)-3-fluorophenyl)-4-(pyridin-3-yl)thiazol-2-amine], the EC50 is below 1000 nM.
For the molecule `Fc1cccc(-c2csc(Nc3cccc(Oc4ccccc4)c3)n2)c1` [compound 188, 4-(3-fluorophenyl)-N-(3-phenoxyphenyl)thiazol-2-amine], the EC50 is below 1000 nM.
Same read-out and setting: then `N#Cc1cccc(Nc2nc(-c3ccc(Cl)cc3)cs2)c1` [compound 58, 3-(4-(4-chlorophenyl)thiazol-2-ylamino)benzonitrile], with above 10000 nM.
Still for that read-out and setting: with `CCCCCc1ccc(Nc2nc(-c3cc(-c4ccc(Cl)c(Cl)c4)no3)cs2)cc1` [compound 184, 4-(3-(3,4-dichlorophenyl)isoxazol-5-yl)-N-(4-pentylphenyl)thiazol-2-amine] the figure was above 10000 nM; with `CCCCCc1ccc(Nc2nc(-c3cccc(F)c3)cs2)cc1` [compound 183, 4-(3-fluorophenyl)-N-(4-pentylphenyl)thiazol-2-amine], below 1000 nM; with `CCCCCOc1ccc(Nc2nc(-c3ccc(OC)cc3)cs2)cc1C(F)(F)F` [compound 134, N-(3-(trifluoromethyl)-4-(pentyloxy)phenyl)-4-(4-methoxyphenyl)thiazol-2-amine], below 1000 nM.
Same read-out and setting: with `Fc1ccc2nc(Nc3nc(-c4cccnc4)cs3)sc2c1` [compound 206, 6-fluoro-N-(4-(pyridin-3-yl)thiazol-2-yl)benzo[d]thiazol-2-amine] the figure was 1000 to 10000 nM.

Still in this experiment, the particulars now being: Hepatitis C virus, Huh-7, 72 h, Table III; Huh-7 HCV replicon-containing cells, three days; read-out: Activity.
As for `CCCCCCCCOc1ccc(Nc2nc(-c3ccc(NC)nc3)cs2)cc1C(F)(F)F` [compound 536, 5-(2-(3-(trifluoromethyl)-4-(octyloxy)phenylamino)thiazol-4-yl)-N-methylpyridin-2-amine], the EC50 was below 1000 nM.
Turning to `CCCCCCCCOC(=O)c1ccc(Nc2nc(-c3ccc(F)cc3)cs2)cc1C(F)(F)F` [compound 700, octyl 4-(4-(4-fluorophenyl)thiazol-2-ylamino)-2-(trifluoromethyl)benzoate], the EC50 was below 1000 nM.
On to `CCCCCCCCN(C)c1ccc(Nc2nc(-c3ccc(Cl)cc3)cs2)cc1C(F)(F)F` [compound 579, N^4-(4-(4-chlorophenyl)thiazol-2-yl)-2-(trifluoromethyl)-N^1-methyl-N^1-octylbenzene-1,4-diamine], for which the EC50 was below 1000 nM.
In the case of `CCCCCCCCOc1ccc(Nc2nc(-c3cnc4ccc(C#N)cn34)cs2)cc1C(F)(F)F` [compound 674, 3-(2-(3-(trifluoromethyl)-4-(octyloxy)phenylamino)thiazol-4-yl)H-imidazo[1,2-a]pyridine-6-carbonitrile], the EC50 was below 1000 nM.
On to `CCCCCCCCOc1ccc(Nc2nc(Cc3ccc(F)c(F)c3)cs2)cc1C(F)(F)F` [compound 609, 4-(3,4-difluorobenzyl)-N-(3-(trifluoromethyl)-4-(octyloxy)phenyl)thiazol-2-amine], for which the EC50 lay within 1000 to 10000 nM.
The same measure, in the same setting: with `CCCCCOc1ccc(Nc2nc(Cc3ccc(F)c(F)c3)cs2)cc1F` [compound 610, 4-(3,4-difluorobenzyl)-N-(3-fluoro-4-(pentyloxy)phenyl)thiazol-2-amine] the figure was above 10000 nM.

Staying with this experiment, now noted: Hepatitis C virus, replicon based assay of HCV replication inhibition; Table II; read-out: Activity.
`COc1ccc(-c2csc(Nc3ccc(OCC(C)C)c(C(F)(F)F)c3)n2)cc1` [compound 249, N-(4-isobutoxy-3-(trifluoromethyl)phenyl)-4-(4-methoxyphenyl)thiazol-2-amine]: the EC50 was below 1000 nM.
For the molecule `CCCCCOc1ccc(Nc2nc(-c3ccc4[nH]c(=O)oc4c3)cs2)cc1C(F)(F)F` [compound 407, 6-(2-(3-(trifluoromethyl)-4-(pentyloxy)phenylamino)thia-zol-4-yl)benzo[d]oxazol-2(3H)-one], the EC50 is below 1000 nM.
Same read-out and setting: then `CCCCCOc1ccc(Nc2nc(CN3CCC(C(C)(C)N)C3)cs2)cc1F` (stereo not shown) [compound 305, 4-((3-(2-aminopropan-2-yl)pyrrolidin-1-yl)methyl)-N-(3-fluoro-4-(pentyloxy)phenyl)thiazol-2-amine], with 1000 to 10000 nM; and `CCCCCCCCN(C)c1ccc(Nc2nc(Cc3ccccc3)cs2)cc1C(F)(F)F` [compound 492, N^4-(4-benzylthiazol-2-yl)-2-(trifluoromethyl)-N^1-methyl-N^1-octylbenzene-1,4-diamine], with 1000 to 10000 nM.
Still for that read-out and setting: then `CCCCCOc1ccc(Nc2nc(CN3CCCCC3CO)cs2)cc1F` (stereo not shown) [compound 286, (1-((2-(3-fluoro-4-(pentyloxy)phenylamino)thia-zol-4-yl)methyl)piperidin-2-yl)methanol], with 1000 to 10000 nM.
On the same count and under the same terms, then `CCCCCCCCOc1ccc(Nc2nc3c(s2)Cc2ccccc2-3)cc1` [compound 485, N-(4-(octyloxy)phenyl)-8H-indeno[1,2-d]thiazol-2-amine], with below 1000 nM; and `Fc1ccc(-c2csc(Nc3ccc(OC4CCCC4)c(C(F)(F)F)c3)n2)cc1F` [compound 257, N-(4-(cyclopentyloxy)-3-(trifluoromethyl)phenyl)-4-(3,4-difluorophenyl)thiazol-2-amine], with below 1000 nM.
Consider `CCCCCOc1ccc(Nc2nc(-c3ccccn3)cs2)cc1F` [compound 418, N-(3-fluoro-4-(pentyloxy)phenyl)-4-(pyridin-2-yl)thiazol-2-amine], for which the EC50 is below 1000 nM.
Consider `CCCCCOc1ccc(Nc2nc(CN3CCC[C@@H]3C(=O)O)cs2)cc1C(F)(F)F` [compound 278, (R)-1-((2-(4-(pentyloxy)-3-(trifluoromethyl)phenyl-amino)thiazol-4-yl)methyl)pyrrolidine-2-carboxylic acid], for which the EC50 was below 1000 nM.
Consider `CCCCCCCOc1ccc(Nc2nc(-c3ccccc3OC)cs2)cc1` [compound 375, N-(4-(heptyloxy)phenyl)-4-(2-methoxyphenyl)thiazol-2-amine], for which the EC50 was below 1000 nM.
`CCCCCCCOc1ccc(Nc2nc(-c3ccc(Cl)s3)cs2)cc1` [compound 393, 4-(5-chlorothiophen-2-yl)-N-(4-(heptyloxy)phenyl)thiazol-2-amine]: the EC50 was below 1000 nM.
Take `CCCCCOc1ccc(Nc2nc(CN3C(C)CCCC3C)cs2)cc1F` (stereo not shown) [compound 297, 4-((2,6-dimethylpiperidin-1-yl)methyl)-N-(3-fluoro-4-(pentyloxy)phenyl)thiazol-2-amine]: the EC50 fell in the range of 1000 to 10000 nM.
On the same count and under the same terms, then `COc1ccc(CNc2nc(-c3ccc(OCC(=O)O)cc3)c(C)s2)cc1` [compound 341, 2-(4-(2-(4-methoxybenzylamino)-5-methylthiazol-4-yl)phenoxy)acetic acid], with above 10000 nM; and `CCCCCCCCOc1ccc(Nc2nc(-c3ccc(O)cc3)cs2)cc1` [compound 458, 4-(2-(4-(octyloxy)phenylamino)thia-zol-4-yl)phenol], with below 1000 nM; and `CCOC(=O)c1ccc(Nc2nc(-c3ccc(CC(=O)O)cc3)c(C)s2)cc1` [compound 342, 2-(4-(2-(4-(ethoxycarbonyl)phenylamino)-5-methylthiazol-4-yl)phenyl)acetic acid], with above 10000 nM.
As to `CCCCCCCCOc1ccc(Nc2nc(-c3ccc(C(=O)N(C)C)nc3)cs2)cc1` [compound 456, 5-(2-(4-(octyloxy)phenylamino)thia-zol-4-yl)-N,N-dimethylpyridine-2-carboxamide], the EC50 was in the range of 1000 to 10000 nM.

The same experiment, now with this note: Hepatitis C virus, replicon based assay of HCV replication inhibition; Table IV; read-out: Activity.
With `CCCCCCCCOc1ccc(Nc2nc(C(=O)CSC3=NC(=O)CC(=O)N3)cs2)cc1C(F)(F)F` [compound 808, 2-(2-(2-(3-(trifluoromethyl)-4-(octyloxy)phenylamino)thiazol-4-yl)-2-oxoethylthio)pyrimidine-4,6(1H,5H)-dione], the EC50 is below 1000 nM.
Same read-out and setting: then `c1cncc(-c2csc(Nc3ccc4c(c3)OCCO4)n2)c1` [compound 737, N-(2,3-dihydrobenzo[b][1,4]dioxin-6-yl)-4-(pyridin-3-yl)thiazol-2-amine], with above 10000 nM.
`FC(F)(F)c1cc(Nc2nc(-c3cccnc3)cs2)ccc1OCCOc1ccccc1` [compound 848, N-(4-(2-phenoxyethoxy)-3-(trifluoromethyl)phenyl)-4-(pyridin-3-yl)thiazol-2-amine]: the EC50 was below 1000 nM.
For the molecule `CCOC(=O)Cc1ccc(-c2csc(Nc3ccc(OCCOc4ccccc4)c(C(F)(F)F)c3)n2)s1` [compound 933, ethyl 2-(5-(2-(4-(2-phenoxyethoxy)-3-(trifluoromethyl)phenylamino)thiazol-4-yl)thiophen-2-yl)acetate], the EC50 fell in the range of 1000 to 10000 nM.
Same read-out and setting: with `Fc1sc(Nc2ccc(OCCCC3CCCC3)c(C(F)(F)F)c2)nc1-c1cccnc1` [compound 945, N-(4-(3-cyclopentylpropoxy)-3-(trifluoromethyl)phenyl)-5-fluoro-4-(pyridin-3-yl)thiazol-2-amine] the figure was below 1000 nM; with `O=S1(=O)CCN(Cc2ccc(Nc3nc(-c4cccnc4)cs3)cc2)CC1` [compound 792], above 10000 nM.
Regarding `N#Cc1ccc(Nc2nc(-c3cccnc3)cs2)cc1` [compound 880, 4-(4-(pyridin-3-yl)thiazol-2-ylamino)benzonitrile], the EC50 is 1000 to 10000 nM.
On the same count and under the same terms, then `NC(=O)c1ccc(Nc2nc(-c3cccnc3)cs2)cc1` [compound 873, 4-(4-(pyridin-3-yl)thiazol-2-ylamino)benzamide], with above 10000 nM; and `COc1ncc(-c2csc(Nc3ccc(OCCCc4cccnc4)c(C(F)(F)F)c3)n2)cn1` [compound 830, N-(4-(3-(pyridin-3-yl)propoxy)-3-(trifluoromethyl)phenyl)-4-(2-methoxypyrimidin-5-yl)thiazol-2-amine], with 1000 to 10000 nM.
Still for that read-out and setting: then `COc1cc(-c2ccccc2)c(C)cc1Nc1nc(-c2cccnc2)cs1` [compound 903], with below 1000 nM.
The same measure, in the same setting: then `CCCCCCCCOc1ccc(Nc2nc(C(=O)CSc3ccccn3)cs2)cc1C(F)(F)F` [compound 917, 1-(2-(3-(trifluoromethyl)-4-(octyloxy)phenylamino)thiazol-4-yl)-2-(pyridin-2-ylthio)ethanone], with 1000 to 10000 nM.
